Experimental findings from patent US20250179047A1, “5-[7-(3,4-DIHYDRO-1H-ISOQUINOLINE-2-CARBONYL)-1,2,3,4 TETRAHYDROISOQUINOLIN-6-YL]-1H-PYRROLE-3-CARBOXAMIDE DERIVATIVES, PHARMACEUTICAL COMPOSITIONS CONTAINING THEM AND THEIR USES AS PRO-APOPTOTIC AGENTS” (LES LABORATOIRES SERVIER, priority 2022, published 2025) are described below.

Each structure is given as a SMILES string.

In general, IC50 refers to the point on the concentration scale where inhibition reaches its midpoint. A high value points to lower potency.

The target in assay [1] is BCL2 WT (Homo sapiens (Human), UniProt P10415). The assay is described as follows: TR-FRET competitive binding assay, BCL2 WT. Particulars: Ki determined from IC50, read-out: TR_FRET EKI_Bcl2 WT. In a few lines:
(§1)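 Terbium-labelled N-terminal Halo-fusion BCL2 or BCLXL (E. coli), 0.5 nM, competed against fluorescein-labelled PUMA peptide (2 or 20 nM) for 2 h at 23° C in 50 mM Hepes pH 7.5, 150 mM NaCl, 5% DMSO. TR-FRET 520/495 nm ratio gave IC50 by four-parameter fit; Ki derived from IC50.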
For orientation: TR-FRET usually uses a lanthanide donor and a delayed reading to cut background.

Assay [2] concerns the target BCLXL WT (Homo sapiens (Human), UniProt Q07817). Briefly: TR-FRET competitive binding assay, BCLXL WT. The conditions noted are these: for Ki: BCLXL WT, Ki determined from IC50, read-out: TR_FRET EKI BclxL; for TR_FRET EKI BCLxL/WT selectivty ratio: ratio Ki BCLxL / Ki BCL2 WT. The essentials: as §1
The target of assay [3] is BCL2 D103Y (Homo sapiens, UniProt P10415, D103Y). Briefly: TR-FRET competitive binding assay, BCL2 D103Y. The conditions noted are these: Ki determined from IC50, read-out: TR_FRET EKI_Bcl2 D103Y. In a few lines: as §1
In assay [4] the test system is KMS-12-PE Bcl-2 G101V. Briefly: In vitro cytotoxicity CellTiter-Glo 48 h, KMS-12-PE Bcl-2 G101V. Particulars: for Ratio (G101V/WT): C50 KMS-12-PE Bcl-2 G101V over C50 KMS-12-PE Bcl-2 WT; for IC50: Homo sapiens, KMS-12-PE, 48 h, CellTiter-Glo, C50 = concentration needed to reach 50% of the cellular viability. Type of assay: cell-based. In a few lines:
(§2)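 CTG luminescence read-out; C50 = concentration reaching 50% cellular viability. Cells: KMS-12-PE expressing Bcl-2 WT or G101V (lentiviral, TagRFP-sorted). 11-pt curve, 48 h, 37 °C/5% CO2.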
In general terms: In ATP-based viability assays light output follows the ATP content of the culture.

Assay [5] has as its system KMS-12-PE Bcl-2 WT. Briefly: In vitro cytotoxicity CellTiter-Glo 48 h, KMS-12-PE Bcl-2 WT. Type of assay: cell-based. Particulars: Homo sapiens, KMS-12-PE, C50 = concentration needed to reach 50% of the cellular viability. In a few lines:
as §2

In assay [6] the test system is BCL2 G101V. Briefly: TR-FRET competitive binding assay, BCL2 G101V. Details: species or system human. Particulars: ratio Ki BCL2 G101V / Ki BCL2 WT. The essentials:
as §1

Assay [7] addresses BCL2 G101V (Homo sapiens, UniProt P10415, G101V). Briefly: TR-FRET competitive binding assay, BCL2 G101V. The conditions noted are these: BCL2 G101V; Ki determined from IC50; read-out: TR_FRET EKI_Bcl2 G101V. The essentials:
as §1

Chain of BCLXL WT (Q07817 other isoform, or with tags, fused parts or gaps): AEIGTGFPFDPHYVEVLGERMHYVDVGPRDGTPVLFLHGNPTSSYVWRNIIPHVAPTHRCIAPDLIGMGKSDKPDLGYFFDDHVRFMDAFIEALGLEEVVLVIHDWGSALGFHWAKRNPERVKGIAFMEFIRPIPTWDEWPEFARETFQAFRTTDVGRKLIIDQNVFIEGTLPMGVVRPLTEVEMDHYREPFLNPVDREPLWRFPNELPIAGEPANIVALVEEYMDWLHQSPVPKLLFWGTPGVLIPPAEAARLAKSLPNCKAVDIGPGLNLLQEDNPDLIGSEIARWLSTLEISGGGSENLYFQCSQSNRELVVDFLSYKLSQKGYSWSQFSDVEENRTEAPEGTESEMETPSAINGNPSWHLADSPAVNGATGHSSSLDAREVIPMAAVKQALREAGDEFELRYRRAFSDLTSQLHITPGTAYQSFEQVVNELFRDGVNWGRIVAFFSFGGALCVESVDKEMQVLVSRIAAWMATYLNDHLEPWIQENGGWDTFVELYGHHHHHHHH

Turning to `Cc1c(N(C(=O)c2cc(-c3cc4c(cc3C(=O)N3Cc5ccccc5C[C@H]3C)CN(C(=O)Cc3ccc(OCCN5CC6(CCS6(=O)=O)C5)cc3)CC4)n(C)c2C)c2ccc(O)cc2)cc(C#N)n1C` [Example 37, N-(5-cyano-1,2-dimethyl-1H-pyrrol-3-yl)-5-(2-{2-[4-(2-{1,1-dioxo-1λ^6-thia-6-azaspiro[3.3]heptan-6-yl}ethoxy)phenyl]acetyl}-7-[(3R)-3-methyl-1,2,3,4-tetrahydroisoquinoline-2-carbonyl]-1,2,3,4-tetrahydroisoquinolin-6-yl)-N-(4-hydroxyphenyl)-1,2-dimethyl-1H-pyrrole-3-carboxamide], the Ki in assay [1] was 0.1 nM; in assay [2], 1.3 nM; in assay [3] it was 0.28 nM; in assay [7], 0.3 nM. In assay [2], the “TR_FRET EKI BCLxL/WT selectivty ratio” value turned out to be 13.0. Besides, the “Ratio (G101V/WT)” value in assay [4] stood at 5.36. For the same compound, the figures for the IC50 in assay [4] and in assay [5] were 0.0932 µM and 0.0174 µM, respectively. The “TR_FRET EKI G101V/WT selectivty ratio” value in assay [6] is listed as 2.7.
In the case of `Cc1c(N(C(=O)c2cc(-c3cc4c(cc3C(=O)N3Cc5ccccc5C[C@H]3C)CN(C(=O)Cc3ccc(N5CCN6CC(F)(F)C[C@H]6C5)cc3F)CC4)n(C)c2C)c2ccc(O)cc2)cc(C#N)n1C` [Example 40, 5-[2-(2-{4-[(8aS)-7,7-difluoro-hexahydropyrrolo[1,2-a]piperazin-2-yl]-2-fluorophenyl}acetyl)-7-{[(3R)-3-methyl-3,4-dihydro-1H-isoquinolin-2-yl]carbonyl}-3,4-dihydro-1H-isoquinolin-6-yl]-N-(5-cyano-1,2-dimethylpyrrol-3-yl)-N-(4-hydroxyphenyl)-1,2-dimethylpyrrole-3-carboxamide], the Ki in assay [1] was 0.68 nM; in assay [2] it was 7 nM; in assay [3], 2.11 nM; in assay [7], 3 nM. For the same compound, in assay [2], the “TR_FRET EKI BCLxL/WT selectivty ratio” value was 10.3. For the same compound, in assay [4], the “Ratio (G101V/WT)” value was 4.54. Further, the values for the half-maximal inhibitory concentration (IC50) in assay [4] and in assay [5] were 0.0426 µM and 0.0094 µM, respectively. For the same compound, the “TR_FRET EKI G101V/WT selectivty ratio” value in assay [6] came out at 4.4.
For `CCn1c(C#N)cc(N(C(=O)c2cc(-c3cc4c(cc3C(=O)N3Cc5ccccc5C[C@H]3C)CN(C(=O)Cc3ccc(OCCN5CCOCC5)cc3)CC4)n(C)c2C)c2ccc(O)cc2)c1C` [Example 41, N-(5-cyano-1-ethyl-2-methyl-pyrrol-3-yl)-N-(4-hydroxyphenyl)-1,2-dimethyl-5-[7-[(3R)-3-methyl-3,4-dihydro-1H-isoquinoline-2-carbonyl]-2-[2-[4-(2-morpholinoethoxy)phenyl]acetyl]-3,4-dihydro-1H-isoquinolin-6-yl]pyrrole-3-carboxamide], the Ki was determined as 0.12 nM in assay [1], 2 nM in assay [2], 0.55 nM in assay [3] and 0.4 nM in assay [7]. Further, in assay [2], the “TR_FRET EKI BCLxL/WT selectivty ratio” value was 16.7. In addition, the “Ratio (G101V/WT)” value in assay [4] worked out at 5.41. Also, the half-maximal inhibitory concentration (IC50) was 0.051 µM in assay [4] and 0.0094 µM in assay [5]. Besides, the “TR_FRET EKI G101V/WT selectivty ratio” value in assay [6] was determined as 3.1.
As for `Cc1c(N(C(=O)c2cc(-c3cc4c(cc3C(=O)N3Cc5ccccc5C[C@H]3C)CN(C(=O)Cc3ccc(OCCN5CC(F)C5)cc3)CC4)n(C)c2C)c2ccc(O)cc2)cc(C#N)n1C` [Example 49, N-(5-cyano-1,2-dimethyl-1H-pyrrol-3-yl)-5-[2-(2-{4-[2-(3-fluoroazetidin-1-yl)ethoxy]phenyl}acetyl)-7-[(3R)-3-methyl-1,2,3,4-tetrahydroisoquinoline-2-carbonyl]-1,2,3,4-tetrahydroisoquinolin-6-yl]-N-(4-hydroxyphenyl)-1,2-dimethyl-1H-pyrrole-3-carboxamide], the Ki in assay [1] was 0.1 nM; in assay [2], 1.3 nM; in assay [3], 0.17 nM; in assay [7] it was 0.2 nM. In addition, the “TR_FRET EKI BCLxL/WT selectivty ratio” value in assay [2] was determined as 13.0. Also, the “Ratio (G101V/WT)” value in assay [4] worked out at 5.91. The results for the half-maximal inhibitory concentration (IC50) in assay [4] and in assay [5] were 0.0697 µM and 0.0118 µM, respectively. Besides, in assay [6], the “TR_FRET EKI G101V/WT selectivty ratio” value stood at 2.3.
